Among the data in US11866429B2, “Heteroaryl-biphenyl amines for the treatment of PD-L1 diseases” (CHEMOCENTRYX, INC., priority 2019, dated 2024) are IC50 values, retold here.

The target in the experiment is human PD-L1 (Homo sapiens (Human), UniProt Q9NZQ7). The experiment can be described thus: Enzyme-Linked Immunosorbent Assay (ELISA), PD-1/PD-L1 binding. The settings on record: plates coated with human PD-L1; Human PD-1 and biotin added; absorbance at 450 nm. As to the method:
96 Well plates were coated with 1 μg/mL of human PD-L1 (obtained from R&D) in PBS overnight at 4° C. The wells were then blocked with 2% BSA in PBS (W/V) with 0.05% TWEEN-20 for 1 hour at 37° C. The plates were washed 3 times with PBS/0.05% TWEEN-20 and the compounds were serial diluted (1:5) in dilution medium and added to the ELISA plates. Human PD-1 and biotin 0.3 μg/mL (ACRO Biosystems) were added and incubated for 1 hour at 37° C. then washed 3 times with PBS/0.05% TWEEN-20. A second block was performed with 2% BSA in PBS (W/V)/0.05% TWEEN-20 for 10 min at 37° C. and the plates were washed 3 times with PBS/0.05% TWEEN-20. Streptavidin-HRP was added for 1 hour at 37° C. then the plates were washed 3 times with PBS/0.05% TWEEN-20. TMB substrate was added and reacted for 20 min at 37° C. A stop solution (2 N aqueous […]) was added. The absorbance was read at 450 nm using a micro-plate spectrophotometer.
A general note: ELISA stands for enzyme-linked immunosorbent assay.

The term IC50 denotes the concentration that inhibits the measured activity by half. Lower therefore signals greater potency.

human PD-L1, sequence (Q9NZQ7 19-239): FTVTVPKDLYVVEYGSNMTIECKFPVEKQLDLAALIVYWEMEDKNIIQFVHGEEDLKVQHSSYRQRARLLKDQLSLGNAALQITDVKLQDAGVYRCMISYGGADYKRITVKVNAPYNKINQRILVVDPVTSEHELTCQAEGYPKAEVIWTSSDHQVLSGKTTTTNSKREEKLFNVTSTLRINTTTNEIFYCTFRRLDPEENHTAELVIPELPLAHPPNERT

Turning to `COc1nc(-c2cccc(-c3cccc(Nc4nc(C)nc5cccnc45)c3C)c2Cl)ccc1CN1CC(C)(O)C1` [Compound 1.007], the IC50 is less than 10 nM. In the case of `COc1nc(-c2cccc(-c3cccc(Nc4nc(C)nc5cccnc45)c3C)c2Cl)ccc1CNC1CCNCC1` [Compound 1.019] it was less than 10 nM; in that of `COc1nc(-c2cccc(-c3cccc(Nc4nc(C)nc5cccnc45)c3C)c2F)ccc1CN[C@@H]1CCOC[C@@H]1O` [Compound 1.012], less than 10 nM. `COc1nc(-c2cccc(-c3cccc(Nc4nc(C)nc5cccnc45)c3C)c2Cl)ccc1CN[C@H]1CNC(=O)C1` [Compound 1.024] came in with an IC50 of less than 10 nM. `COc1nc(-c2cccc(-c3cccc(Nc4nc(C)nc5cccnc45)c3C)c2Cl)ccc1CN[C@H]1CC[C@@H]1O` [Compound 1.018]: the IC50 is less than 10 nM. The same measure for `COc1nc(-c2cccc(-c3cccc(Nc4nccc5nccnc45)c3Cl)c2Cl)cnc1CN[C@@H]1CCOC[C@@H]1O` [Compound 1.001]: less than 10 nM. Regarding `COc1nc(-c2cccc(-c3cccc(Nc4nc(C)nc5cccnc45)c3C)c2Cl)ccc1CNC(C)(C)CCO` [Compound 1.050], the IC50 was less than 10 nM.

In turn, `COc1nc(-c2cccc(-c3cccc(Nc4nc(C)nc5cccnc45)c3C)c2Cl)ccc1CN1CC(C(=O)O)C1` [Compound 1.066] registered an IC50 of less than 10 nM. In the case of `COc1nc(-c2cccc(-c3cccc(Nc4nc(C)nc5cccnc45)c3C)c2Cl)ccc1CN1CCC(C)(O)CC1` [Compound 1.063] it was less than 10 nM; in that of `COc1nc(-c2cccc(-c3cccc(Nc4nccc5nccnc45)c3Cl)c2Cl)cnc1CN1CC(C)(C(=O)O)C1` [Compound 1.003], less than 10 nM. In the case of `Cc1nc(Nc2cccc(-c3cccc(-c4ccc(CNC[C@@H]5CCC(=O)N5)c(C(F)(F)F)n4)c3Cl)c2C)c2ncccc2n1` [Compound 1.020] it was less than 10 nM. In the case of `COc1nc(-c2cccc(-c3cccc(Nc4nc(C(C)C)nc5cccnc45)c3C)c2Cl)ccc1CNC[C@@H]1CCC(=O)N1` [Compound 1.068] it was less than 10 nM. Consider `COc1nc(-c2cccc(-c3cccc(Nc4nc(C)nc5cccnc45)c3C)c2Cl)ccc1CN(C)CCO` [Compound 1.021], for which the IC50 was less than 10 nM. The same measure for `COc1nc(-c2cccc(-c3cccc(Nc4nc(C)nc5cccnc45)c3C)c2Cl)ccc1CN1CC2(CCC(=O)N2)C1` [Compound 1.053]: less than 10 nM; for `COc1nc(-c2cccc(-c3cccc(Nc4nc(C(F)(F)F)nc5cccnc45)c3C)c2Cl)ccc1CN1CC(C)(C(=O)O)C1` [Compound 1.069]: less than 10 nM; for `COc1nc(-c2cccc(-c3cccc(Nc4nc(C)nc5cccnc45)c3C)c2Cl)ccc1CNC[C@@H]1CCC(=O)N1` [Compound 1.073]: less than 10 nM. The same measure for `COc1nc(-c2cccc(-c3cccc(Nc4nc(C)nc5cccnc45)c3C)c2Cl)ccc1CN[C@H]1CCOC1` [Compound 1.059]: less than 10 nM.

With `COc1nc(-c2cccc(-c3cccc(Nc4nc(C)nc5cccnc45)c3C)c2Cl)ccc1CN[C@@H]1CNC(=O)C1` [Compound 1.055], the IC50 was less than 10 nM.

The compound `COc1nc(-c2cccc(-c3cccc(Nc4nc(C)nc5cccnc45)c3C)c2Cl)ccc1CNCC(=O)O` [Compound 1.031] displayed an IC50 of less than 10 nM.

`COc1nc(-c2cccc(-c3cccc(Nc4nc(C)nc5cccnc45)c3C)c2Cl)ccc1CN1CC[C@@](C)(O)C1` [Compound 1.034] registered an IC50 of less than 10 nM. The same measure for `COc1nc(-c2cccc(-c3cccc(Nc4nc(C)nc5cccnc45)c3C)c2Cl)ccc1CNCCn1ccnc1` [Compound 1.032]: less than 10 nM; for `COc1nc(-c2cccc(-c3cccc(Nc4nc(C)nc5cccnc45)c3C)c2Cl)ccc1CN[C@@H]1CCOC[C@@H]1O` [Compound 1.064]: less than 10 nM; for `CCc1nc(-c2cccc(-c3cccc(Nc4nc(C)nc5cccnc45)c3C)c2Cl)ccc1CNC[C@@H]1CCC(=O)N1` [Compound 1.046]: less than 10 nM. In the case of `COc1nc(-c2cccc(-c3cccc(Nc4nc(C)nc5cccnc45)c3C)c2Cl)ccc1CNCC(C)(C)C(=O)O` [Compound 1.060] it was less than 10 nM.

For `COc1nc(-c2cccc(-c3cccc(Nc4nc(C)nc5cccnc45)c3Cl)c2F)ccc1CN[C@@H]1CCOC[C@@H]1O` [Compound 1.009], the IC50 was less than 10 nM. The same measure for `COc1nc(-c2cccc(-c3cccc(Nc4nccc5nccnc45)c3Cl)c2Cl)ccc1CN1CC(C(=O)O)C1` [Compound 1.082]: less than 10 nM.
